From patent US7923461B2, “TNF-α production inhibitors” (Santen Pharmaceutical Co., Ltd., priority 2000, dated 2011) come the findings set out here.

The subject of one data set is TNF-α production. Put plainly: Inhibitory effects on TNF-α production induced by lipopolysaccharide (LPS) stimulation, in vivo test. On the set-up: species or system rat. The following applies: female rats, plasma TNF-α (ELISA) two hours after LPS; for inhibition in vivo at 10 mg/kg / inhibition in vivo at 3 mg/kg: Rattus norvegicus, 2 h, read-out: Inhibition rate (%) of TNF-α production; for inhibition in vivo at 10 mg/kg: oral administration of 10 mg/kg immediately after LPS to footpad; for inhibition in vivo at 3 mg/kg / Inhibition rate (%) of TNF-α production: oral administration of 3 mg/kg immediately after LPS to footpad. How it is done: Inhibitory effects on TNF-α production induced by lipopolysaccharide (LPS) stimulation were studied by in vivo tests according to the method of Tsuji et al. (Inflamm res. 46 (1997) 193-198).
Female rats (five per group), body weight of about 200 g, about eight weeks old, were used as test animals. LPS from Salmonella was dissolved in physiological saline to prepare an LPS solution (1 mg/ml). Each test substance was dissolved or uniformly suspended in a 1% methylcellulose solution to give test substance-preparation liquids.
The above-mentioned LPS solution (0.5 ml/kg) was administered to a footpad of the rat. Immediately after the LPS administration, the test substance-preparation liquid (containing 10 mg/kg or 3 mg/kg test substance) was orally administered. Two hours after the LPS administration, blood was collected from abdominal aorta and was centrifuged at 4° C. and 3000 rpm for ten minutes. TNF-α levels in the obtained plasma were measured with a rat TNF-α-specific ELISA kit. TNF-α was not observed in the plasma with respect to an LPS-non-administered group (control).
Inhibition rates of TNF-α production of the test substances were determined by the following equation. Inhibition rate (%)=[(A−B)/A]×100 A: TNF-α level in plasma of test substance-nonadministered group B: TNF-α level in plasma of test substance-administered group (Results)

In the case of `CC(CNC(=O)N(CCN(C)C(=O)OC(C)(C)C)CCC12CC3CC(CC(C3)C1)C2)Cc1ccncc1` (single isomer, unassigned; (+)) [Compound No. 1-139, (+)-1-[2-(1-Adamantyl)ethyl]-1-[2-[N-(t-butoxycarbonyl)-N-methylamino]ethyl]-3-[2-methyl-3-(4-pyridyl)propyl]urea], the melting point lay in the range of 122.7 to 123.7 °C. For the same molecule, the inhibition in vivo at 10 mg/kg in the data set on TNF-α production stood at 94.1%. In turn, `COCCN(CCC12CC3CC(CC(C3)C1)C2)C(=O)NCCCc1ccncc1` [Compound No. 1-18, 1-[2-(1-Adamantyl)ethyl]-1-(2-methoxyethyl)-3-[3-(4-pyridyl)propyl]urea] registered a melting point of 101.5 to 104.5 °C. Moreover, in the data set on TNF-α production, the inhibition in vivo at 10 mg/kg was determined as 78.9%. Turning to `O=C(NCCCc1ccncc1)N(CCC12CC3CC(CC(C3)C1)C2)CC1CC1` [Compound No. 1-22, 1-[2-(1-Adamantyl)ethyl]-1-cyclopropylmethyl-3-[3-(4-pyridyl)propyl]urea], the melting point fell in the range of 123 to 125 °C. Besides, in the data set on TNF-α production, the inhibition in vivo at 10 mg/kg worked out at 87%. `O=C(NCCCc1ccncc1)N(CCC(F)(F)F)CCC12CC3CC(CC(C3)C1)C2` [Compound No. 1-24, 1-[2-(1-Adamantyl)ethyl]-3-[3-(4-pyridyl)propyl]-1-(3,3,33-trifluoropropyl)urea] displayed a melting point of 107.5 to 109 °C. For the same molecule, in the data set on TNF-α production, the inhibition in vivo at 10 mg/kg stood at 95.8%. In the same order, the values of `CC=CCN(CCC12CC3CC(CC(C3)C1)C2)C(=O)NCCCc1ccncc1` [Compound No. 1-25, 1-[2-(1-Adamantyl)ethyl]1-(2-butenyl)-3-[3-(4-pyridyl)propyl]urea] are 89.5 to 93.5 °C and 89%. As to `O=C(NCCCc1ccncc1)N(CCC12CC3CC(CC(C3)C1)C2)Cc1cccs1` [Compound No. 1-27, 1-[2-(1-Adamantyl)ethyl]-3-[3-(4-pyridyl)propyl]-1-(2-thienyl)methylurea], the melting point lay within 142.5 to 144.5 °C. For the same molecule, the inhibition in vivo at 10 mg/kg with TNF-α production turned out to be 81.3%. In the case of `CC(C)=CCN(CCC12CC3CC(CC(C3)C1)C2)C(=O)NCCCc1ccncc1` [Compound No. 1-31, 1-[2-(1-Adamantyl)ethyl]-1-(3-methyl-2-butenyl)-3-[3-(4-pyridyl)propyl]urea], the melting point lay in the range of 93 to 96 °C. In the data set with TNF-α production, the inhibition in vivo at 10 mg/kg worked out at 92.6%. Taken in the same sequence, the figures for `CCCCCCCCCCN(CCC12CC3CC(CC(C3)C1)C2)C(=O)NCCCc1ccncc1` [Compound No. 1-32, 1-[2-(1-Adamantyl)ethyl]-1-decyl-3-[3-(4-pyridyl)propyl]urea] were 75 to 76 °C and 62.4%. Take `O=C(NCCCc1ccncc1)N(CC=Cc1ccccc1)CCC12CC3CC(CC(C3)C1)C2` [Compound No. 1-34, 1-[2-(1-Adamantyl)ethyl]-1-cinnamyl-3-[3-(4-pyridyl)propyl]urea]: the melting point was in the range of 130 to 134.5 °C. For the same molecule, in the data set on TNF-α production, the inhibition in vivo at 10 mg/kg was found to be 70.8%. In the same order, the values of `O=C(NCCCc1ccncc1)N(CCC12CC3CC(CC(C3)C1)C2)Cc1ccco1` [Compound No. 1-42, 1-[2-(1-Adamantyl)ethyl]-1-furfuryl-3-[3-(4-pyridyl)propyl]urea] are 128 to 130 °C and 86.7%. Taken in the same sequence, the figures for `O=C(NCCCc1ccncc1)N(CCC12CC3CC(CC(C3)C1)C2)Cc1ccccc1` [Compound No. 1-43, 1-[2-(1-Adamantyl)ethyl]-1-benzyl-3-[3-(4-pyridyl)propyl]urea] were 130.5 to 135 °C and 67.6%. The molecule `CCCCCNC(=O)N(CCCc1ccncc1)CCC12CC3CC(CC(C3)C1)C2` [Compound No. 1-66, 1-[2-(1-Adamantyl)ethyl]-3-pentyl-1-[3-(4-pyridyl)propyl]urea] registered a melting point of 47 to 50 °C. Besides, the inhibition in vivo at 10 mg/kg with TNF-α production worked out at 79.4%. For `CC(C)N(CCC12CC3CC(CC(C3)C1)C2)C(=O)NCCCc1ccncc1` [Compound No. 1-68, 1-[2-(1-Adamantyl)ethyl]-1-isopropyl-3-[3-(4-pyridyl)propyl]urea], the melting point was 132 to 134 °C. Besides, the inhibition in vivo at 10 mg/kg in the data set with TNF-α production worked out at 79%. Molecule `O=C(NCCCc1ccncc1)N(CCC12CC3CC(CC(C3)C1)C2)C1CCCC1` [Compound No. 1-70, 1-[2-(1-Adamantyl)ethyl]-1-cyclopentyl-3-[3-(4-pyridyl)propyl]urea] yielded a melting point of 135.5 to 137.5 °C. Also, the inhibition in vivo at 10 mg/kg in the data set with TNF-α production came to 87.9%. `CCCCCN(CCC12CC3CC(CC(C3)C1)C2)C(=O)NCCCc1cccnc1` [Compound No. 1-84, 1-[2-(1-Adamantyl)ethyl]-1-pentyl-3-[3-(3-pyridyl)propyl]urea]: the melting point lay within 99.9 to 105.2 °C. In addition, in the data set on TNF-α production, the inhibition in vivo at 3 mg/kg was 35.5%. In turn, `CCCCCN(CCC12CC3CC(CC(C3)C1)C2)C(=O)NC(C)CCc1ccncc1` (centres unmarked) [Compound No. 1-137, 1-[2-(1-Adamantyl)ethyl]-3-[1-methyl-3-(4-pyridyl)propyl]-1-pentylurea] showed a melting point of 128.5 to 129 °C. Moreover, the inhibition in vivo at 3 mg/kg in the data set with TNF-α production was determined as 82.1%.

Consider `CN(CCN(CCC12CC3CC(CC(C3)C1)C2)C(=O)CCCCc1ccncc1)C(=O)OCc1ccccc1` [Compound No. 10-16, 5-(4-Pyridyl)valeric acid N-[2-(1-adamantyl)ethyl]-N-[2-(N′-benzyloxycarbonyl-N′-methylamino)ethyl]amide], for which the “Inhibition rate (%) of TNF-α production” value with TNF-α production amounted to 62.8%. As for `CN(CCN(CCC12CC3CC(CC(C3)C1)C2)C(=O)CCCCc1ccncc1)C(=O)CC(C)(C)C` [Compound No. 10-17, 5-(4-Pyridyl)valeric acid N-[2-(1-adamantyl)ethyl]-N-[2-[N′-(3,3-dimethylbutyryl)-N′-methylamino]ethyl]amide], the “Inhibition rate (%) of TNF-α production” value in the data set on TNF-α production turned out to be 53.8%. With `CN(CCCc1ccncc1)C(=O)N(C)CCC12CC3CC(CC(C3)C1)C2` [Compound No. 11-1, [2-(1-Adamantyl)ethyl]-1,3-dimethyl-3-[3-(4-pyridyl)propyl]urea], the inhibition in vivo at 10 mg/kg with TNF-α production is 50.8%. For `CCCCCN(CCC12CC3CC(CC(C3)C1)C2)C(=O)NCCC(O)c1ccncc1` (centres unmarked) [Compound No. 14-1, 1-[2-(1-Adamantyl)ethyl]-3-[3-hydroxy-3-(4-pyridyl)propyl]-1-pentylurea], the inhibition in vivo at 3 mg/kg with TNF-α production amounted to 36.3%. The same measure, in the same setting: under `CCCCCN(CCC12CC3CC(CC(C3)C1)C2)C(=O)NCCCc1cc[n+]([O-])cc1` [Compound No. 16-1, 4-[3-[3-[2-(1-Adamantyl)ethyl]-3-pentylureido]propyl]pyridine N-oxide] stands 74.3%. Regarding `CCCCCN(CCC12CC3CC(CC(C3)C1)C2)C(=O)CNCCc1ccncc1` [Compound No. 18-1, 2-[2-(4-Pyridyl)ethylamino]acetic acid N-[2-(1-adamantyl)ethyl]1-N-pentylamide], the “Inhibition rate (%) of TNF-α production” value in the data set on TNF-α production stood at 55.7%. For `CCCCCN(CCC12CC3CC(CC(C3)C1)C2)C(=O)COCCc1ccncc1` [Compound No. 18-3, 2-[2-(4-Pyridyl)ethoxy]acetic acid N-[2-(1-adamantyl)ethyl]-N-pentylamide], in the data set with TNF-α production, the inhibition in vivo at 3 mg/kg came to 56.6%. Take `CCCCCN(CCC12CC3CC(CC(C3)C1)C2)C(=O)NCCCc1ccnc(C)c1` [Compound No. 27-1, 1-[2-(1-Adamantyl)ethyl]-3-[3-[4-(2-methyl)pyridyl]propyl]-1-pentylurea]: in the data set with TNF-α production, the “Inhibition rate (%) of TNF-α production” value amounted to 68.6%. Take `CCCCCN(CCC12CC3CC(CC(C3)C1)C2)C(=O)NCCC(=O)c1ccncc1` [Compound No. 31-1, 1-[2-(1-Adamantyl)ethyl]-3-[3-oxo-3-(4-pyridyl)propyl]-1-pentylurea]: the inhibition in vivo at 3 mg/kg in the data set with TNF-α production is 46.8%.
